# Source: patent US8642516B2, “Chemically-defined arrays for screening cell-substrate interactions” (Wisconsin Alumni Research Foundation, priority 2012, dated 2014)
# Legend:
# Format in all cases: cell-based, human
# HUVEC [1] = experiment: HUVEC proliferation (normalized cell number C72/C0) on SAM array spots presenting GRGDSP; conditions: HUVECs, 72 hours
# Description: (§1) For cell assays on SAM arrays, HUVECs or hMSCs were removed from plastic culture plates using a 0.05% trypsin solution, resuspended in media, and seeded onto SAM arrays in sterile polystyrene Petri dishes. After allowing cells to attach for ˜1 hour in a humidified incubator at 37° C. and 5% CO2, arrays were dipped in warm media to remove loosely attached cells and then transferred to a rectangular multidish (Thermo Scientific/Nunc, Rochester, N.Y.) with warm media and imaged ˜4 hours later serving as “0 hr.” For the initial time point and subsequent time-lapse imaging, arrays were placed on an incubated stage and each array spot was imaged every 15 minutes for 72 hours. […]
# (§2) Relative cell attachment at 0 hrs was quantified by counting the number of attached cells per spot and normalizing cell numbers to maximal attachment conditions. Normalized cell number was calculated by dividing the number of cells per spot at 72 hours (C72) to the cell number observed on the same spot at 0 hrs (C0). Relative proliferation was determined by dividing normalized cell numbers at 72 hours by the maximum average normalized cell number observed across GRGDSP density conditions. Similarly, relative spreading was determined by dividing projected cell areas to the maximum average projected cell area observed across GRGDSP density conditions. […]
# HUVEC [2] = experiment: HUVEC migration (single cell tracking) on SAM array spots presenting GRGDSP; conditions: HUVECs
# Description: as §1, §2
# hMSC = hMSC proliferation (normalized cell number C72/C0) on SAM array spots presenting GRGDSP; conditions: hMSCs, 72 hours
# Description: as §1, §2
substance,measurement,setting,value
GRGDSP,maximum normalized cell number (C72/C0),HUVEC [1]; across GRGDSP densities,1.6
same,proliferation,HUVEC [1]; below 0.06% GRGDSP,no proliferation
same,fraction of migrating cells,HUVEC [2]; high GRGDSP densities,virtually no cells migrating
same,fraction of migrating cells,HUVEC [2]; lower GRGDSP densities,over 30%
same,maximum normalized cell number (C72/C0),hMSC; across GRGDSP densities,6.1
same,proliferation,hMSC; below 0.06% GRGDSP,no proliferation
